Laboratory results taken from patent publication US20180215769A1, “POLYCYCLIC-CARBAMOYLPYRIDONE COMPOUNDS AND THEIR PHARMACEUTICAL USE” (priority 2012, published 2018).
Like-named read-outs stand apart in the source and are kept apart here.

What was measured:
Type in all cases: cell-based
human PXR = molecular target: T1, human PXR (Homo sapiens, UniProt O75469); assay: Human PXR activation assay, luciferase reporter gene in DPX2 cells; details: 24 hr, relative to maximum fold induction by 10 or 20 uM rifampicin
T1 construct: expressed in transfected cells; host or cells: DPX2 (stably transformed tumor cell line)
T1 sequence (O75469 1-434): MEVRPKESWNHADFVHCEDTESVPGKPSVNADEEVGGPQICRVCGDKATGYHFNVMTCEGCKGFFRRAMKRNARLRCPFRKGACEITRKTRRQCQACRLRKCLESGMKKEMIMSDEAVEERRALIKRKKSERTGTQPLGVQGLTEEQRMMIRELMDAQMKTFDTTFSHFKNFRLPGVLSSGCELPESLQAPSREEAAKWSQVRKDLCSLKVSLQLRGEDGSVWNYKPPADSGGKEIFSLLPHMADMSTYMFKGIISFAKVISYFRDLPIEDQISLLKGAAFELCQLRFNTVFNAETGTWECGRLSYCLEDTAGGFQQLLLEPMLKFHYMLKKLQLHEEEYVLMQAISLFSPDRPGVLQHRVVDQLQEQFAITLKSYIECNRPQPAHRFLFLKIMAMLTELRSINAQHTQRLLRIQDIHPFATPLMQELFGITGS
Experimental: (§1) Luciferase Reporter Gene Assay.
(§2) A stably transformed tumor cell line (DPX2) plated on 96-well microtiter plates. DPX2 cells harbor the human PXR gene (NR1I2) and a luciferase reporter gene linked to two promoters identified in the human CYP3A4 gene, namely XREM and PXRE. The cells are treated with six concentrations of compounds (0.15˜50 µM) and incubated for 24 hr. The number of viable cells will be determined and the reporter gene activity is assessed. Positive control: Rifampicin at 6 concentrations (0.1˜20 µM). % Emax relative to the maximum fold induction by 10 or 20 µM RIF is calculated for test compounds according to the following equation which adjusts for the DMSO background: % Emax=(Fold induction−1)/(Maximum fold induction by RIF−1)×100%.

[1] = Cytotoxicity (CC50) in MT4 cells, CellTiter-Glo; details: human
Experimental: (§3) For the antiviral assay utilizing MT4 cells, 0.4 μL of 189× test concentration of 3-fold serially diluted compound in DMSO was added to 40 μL of cell growth medium (RPMI 1640, 10% FBS, 1% penicilline/Streptomycine, 1% L-Glutamine, 1% HEPES) in each well of 384-well assay plates (10 concentrations) in quidruplicate.
(§4) 1 mL aliquots of 2×10^6 MT4 cells are pre-infected for 1 and 3 hours respectively at 37° C. with 25 μL (MT4) or of either cell growth medium (mock-infected) or a fresh 1:250 dilution of an HIV-IIIb concentrated ABI stock (0.004 m.o.i. for MT4 cells). Infected and uninfected cells are diluted in cell growth medium and 35 μL of 2000 (for MT4) cells is added to each well of the assay plates.
(§5) Assay plates were then incubated in a 37° C. incubator. After 5 days of incubation, 25 μL of 2× concentrated CellTiter-Glo™ Reagent (catalog # G7573, Promega Biosciences, Inc., Madison, Wis.) was added to each well of the assay plate. Cell lysis was carried out by incubating at room temperature for 2-3 minutes, and then chemiluminescence was read using the Envision reader (PerkinElmer).

HIV-IIIb = assay: Antiviral assay in MT4 cells; details: Human immunodeficiency virus 1, IIIB, MT4, 120 h
Experimental: as §3, §4, §5

human PXR (NR1I2) = molecular target: T2, human PXR (NR1I2) (Homo sapiens, UniProt O75469); assay: Human PXR activation assay, luciferase reporter gene in DPX2 cells; details: human, relative to maximum fold induction by 10 or 20 uM rifampicin
T2 construct: expressed in transfected cells; host or cells: DPX2 (stably transformed tumor cell line)
T2 sequence (O75469 1-434): T1 sequence (O75469 1-434)
Experimental: as §1, §2

[2] = MT-4 cells infected with HIV-IIIb, 5 days incubation, read-out: EC50

SMILES: O=C(NCc1ccc(F)c(F)c1)c1cn2c(c(O)c1=O)C(=O)N1[C@@H]3CC[C@@H](C3)O[C@H]1C2 [Compound 18]
- % Emax (human PXR): 4.4%

SMILES: O=C(NC1(c2ccc(F)cc2F)CC1)c1cn2c(c(O)c1=O)C(=O)N1C(C2)O[C@@H]2CCC[C@H]1C2 (stereo partly drawn) [Compound 29]
- % Emax (human PXR): 3.2%

SMILES: O=C(N[C@@H](c1ccc(F)cc1F)C(F)(F)F)c1cn2c(c(O)c1=O)C(=O)N1C(C2)O[C@H]2CC[C@@H]1C2 (stereo partly drawn) [Compound 36]
- CC50 at 5 days [1]: 13500 nM
- EC50 (HIV-IIIb; [2]): 3.5 nM

SMILES: O=C(NCc1ccc(F)cc1F)c1cn2c(c(O)c1=O)C(=O)N1C(C2)O[C@H]2CCC[C@@H]1C2 (stereo partly drawn) [Compound 7]
- % Emax (human PXR): 6.5%

SMILES: O=C(NCc1ccc(F)cc1F)c1cn2c(c(O)c1=O)C(=O)N1C(C2)[N@]2CCC[C@H]1C2 (stereo partly drawn) [Compound 19]
- % Emax (human PXR): 1.5%

SMILES: O=C(NC1(c2ccc(F)cc2F)CC1)c1cn2c(c(O)c1=O)C(=O)N1C(C2)O[C@H]2CCC[C@@H]1C2 (stereo partly drawn) [Compound 28]
- % Emax (human PXR): 6.1%

SMILES: C[C@@H](NC(=O)c1cn2c(c(O)c1=O)C(=O)N1[C@H]3CC[C@H](C3)O[C@@H]1C2)c1ccc(F)cc1 [Compound 10]
- Emax at 24 hr, 15 µM (human PXR (NR1I2)): 0.19%

SMILES: C[C@H]1CO[C@@H]2Cn3cc(C(=O)NC4(c5ccc(F)cc5F)CC4)c(=O)c(O)c3C(=O)N12 [Compound 37, (3S,11aR)—N-(1-(2,4-difluorophenyl)cyclopropyl)-6-hydroxy-3-methyl-5,7-dioxo-2,3,5,7,11,11a-hexahydrooxazolo[3,2-a]pyrido[1,2-d]pyrazine-8-carboxamide]
- % Emax (human PXR): 1.5%

SMILES: C[C@@H](NC(=O)c1cn2c(c(O)c1=O)C(=O)N1[C@@H]3CC[C@@H](C3)O[C@H]1C2)c1ccc(F)cc1 [Compound 9]
- Emax at 24 hr, 15 µM (human PXR (NR1I2)): 0.07%

SMILES: O=C(NCc1ccc(F)cc1F)c1cn2c(c(O)c1=O)C(=O)N1C(C2)[N@@]2CC[C@@H]1C2 (stereo partly drawn) [Compound 4, (1 S,4R)—N-(2,4-difluorobenzyl)-7-hydroxy-6,8-dioxo-3,4,6,8,12,12a-hexahydro-2H-1,4-methanopyrido[1′,2′:4,5]pyrazino[1,2-a]pyrimidine-9-carboxamide]
- % Emax (human PXR): 3.2%

SMILES: O=C(NCc1ccccc1F)c1cn2c(c(O)c1=O)C(=O)N1[C@@H]3CC[C@@H](C3)O[C@H]1C2 [Compound 23]
- CC50 at 5 days [1]: 11500 nM
- EC50 (HIV-IIIb; [2]): 1.8 nM

SMILES: O=C(NCc1ccc(Cl)c(F)c1)c1cn2c(c(O)c1=O)C(=O)N1[C@@H]3CC[C@@H](C3)O[C@H]1C2 [Compound 26]
- CC50 at 5 days [1]: 11500 nM
- EC50 (HIV-IIIb; [2]): 8 nM

SMILES: O=C(NCc1ccc(F)cc1F)c1cn2c(c(O)c1=O)C(=O)N1C(C2)[N@]2CC[C@H]1C2 (stereo partly drawn) [Compound 6]
- CC50 at 5 days [1]: 53200 nM

SMILES: O=C(NC1(c2ccc(F)cc2F)CCCCC1)c1cn2c(c(O)c1=O)C(=O)N1C(C2)O[C@H]2CC[C@@H]1C2 (stereo partly drawn) [Compound 34]
- EC50 (HIV-IIIb): 456 nM

SMILES: O=C(NCc1ccc(F)cc1F)c1cn2c(c(O)c1=O)C(=O)N1[C@H]3CC[C@H](C3)O[C@@H]1C2 [Compound 2]
- CC50 at 5 days [1]: 2960 nM
- Emax at 24 hr, 15 µM (human PXR (NR1I2)): 2.8%
- EC50 (HIV-IIIb; [2]): 1.9 nM

SMILES: O=C(NCc1ccc(F)cc1F)c1cn2c(c(O)c1=O)C(=O)N1C(C2)O[C@@H]2CCC[C@H]1C2 (stereo partly drawn) [Compound 8]
- % Emax (human PXR): 6.6%

SMILES: O=C(NCc1ccc(F)c(C(F)(F)F)c1)c1cn2c(c(O)c1=O)C(=O)N1[C@@H]3CC[C@@H](C3)O[C@H]1C2 [Compound 25]
- CC50 at 5 days [1]: 7070 nM
- EC50 (HIV-IIIb; [2]): 17.9 nM

SMILES: O=C(NCc1ccc(F)cc1F)c1cn2c(c(O)c1=O)C(=O)N1[C@@H]3CC[C@@H](C3)O[C@H]1C2 [Compound 3]
- CC50 at 5 days [1]: 36200 nM
- Emax at 24 hr, 15 µM (human PXR (NR1I2)): 5%
- EC50 (HIV-IIIb; [2]): 1.9 nM

SMILES: O=C(NC1(c2ccc(F)cc2F)CC1)c1cn2c(c(O)c1=O)C(=O)N1C(C2)O[C@H]2CC[C@@H]1C2 (stereo partly drawn) [Compound 27]
- EC50 (HIV-IIIb; [2]): 4 nM

SMILES: O=C(NCc1ccc(F)cc1F)c1cn2c(c(O)c1=O)C(=O)N1C(C2)[N@@]2CCC[C@@H]1C2 (stereo partly drawn) [Compound 20]
- % Emax (human PXR): 2.4%

SMILES: C[C@@H](NC(=O)c1cn2c(c(O)c1=O)C(=O)N1[C@@H]3CC[C@@H](C3)O[C@H]1C2)c1ccc(F)cc1F [Compound 11]
- EC50 (HIV-IIIb; [2]): 4.4 nM

SMILES: O=C(NCc1cc(F)cc(F)c1)c1cn2c(c(O)c1=O)C(=O)N1[C@@H]3CC[C@@H](C3)O[C@H]1C2 [Compound 24]
- CC50 at 5 days ([1]; MT4 cells, MT-4 cells, 5 days incubation, read-out: CC50): 12600 nM
- EC50 (HIV-IIIb): 3.4 nM

SMILES: C[C@@H](NC(=O)c1cn2c(c(O)c1=O)C(=O)N1[C@H]3CC[C@H](C3)O[C@@H]1C2)c1ccc(F)cc1F [Compound 12]
- CC50 at 5 days [1]: 3230 nM
- EC50 (HIV-IIIb; [2]): 5.4 nM
